pEC50: −log10 of the molar value. Active and inactive are the calls of the source.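 The calls were made as follows: active = half-maximal concentration for the rise in caspase light signal at or below ten times the top tested dose; inconclusive = flat fit between 30% and 70% activity, or unreliable curve fit; inactive = the rest.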
Test system: MEF A1-2A-BIM cells, caspase 3/7 luminescence, 3 h
Test: inducers of caspase signal in A1-dependent MEFs – cell-based, luminescence, retest, A1 inhibitor project, dose response (AID 2765)

Row | SMILES | EC50 | pEC50
1 | CC(Oc1ccc(-c2nccc(-c3ccccn3)n2)cc1)C(=O)NN (stereo not drawn) | > 35 µM (inactive) | –
2 | CCCCOC(=O)c1ccc(S(N)(=O)=O)o1 | > 35 µM (inactive) | –
3 | O=C1NC(=O)c2cc(NC(=O)C3CCCO3)ccc21 (stereo not drawn) | > 35 µM (inactive) | –
4 | CCS(=O)(=O)c1ncc(Cl)c(C(=O)Nc2ccc(C)cc2)n1 | > 35 µM (inactive) | –
5 | CC(=O)OC(C)(C)/C=C/C(=O)[C@](C)(O)C1[C@H](O)C[C@@]2(C)C3CC=C4C(C[C@H](O)C(=O)C4(C)C)[C@]3(C)C(=O)C[C@]12C (stereo partly drawn) | > 35 µM (inactive) | –
6 | CCc1cc(=O)oc2cc(C)cc(OCC(=O)NC3CCN(Cc4ccccc4)CC3)c12 | > 35 µM (inactive) | –
7 | O=C(CN1C(=O)c2ccccc2S1(=O)=O)N1CCN(Cc2ccc3c(c2)OCO3)CC1 | > 35 µM (inactive) | –
8 | NS(=O)(=O)c1ccc(NC(=O)c2ccc3c(c2)CCCC3)cc1 | > 35 µM (inactive) | –
9 | CCC(C)Nc1nnc(SCC(=O)c2c(N)n(C3CC3)c(=O)[nH]c2=O)s1 (stereo not drawn) | > 35 µM (inactive) | –
10 | COc1ccc(-c2cc3ccccc3oc2=O)cc1NC(=S)NC(=O)c1ccc2c(c1)OCCO2 | – | 5.17
11 | COC(=O)[C@]1(C)CCC[C@@]2(C)C3CC[C@@]4(C)C[C@]3(CCC21)CC4=NO (stereo partly drawn) | > 35 µM (inactive) | –
12 | Cc1ccc(CS(=O)(=O)c2ncc(Cl)c(C(=O)Nc3ccc(OC(F)F)cc3)n2)cc1 | > 35 µM (inactive) | –
13 | C/C(=N\NC(=O)CCC(=O)NCc1ccccc1)c1ccco1 | > 35 µM (inactive) | –
14 | Cc1ccc2c(c1)c(C1=c3ccccc3=NC1=O)c(O)n2C | > 35 µM (inactive) | –
15 | CC(C)CC(=O)c1c[nH]c(C(=O)NCc2ccccc2)c1 | > 35 µM (inactive) | –
16 | CC(=O)OCCn1c2nc(=O)[nH]c(=O)c-2nc2cc(C)c(C)cc21 | > 35 µM (inactive) | –
17 | Cc1nc(-c2ccc(F)cc2)c(CC(=O)N(C)CC(=O)Nc2ccccc2Cl)s1 | > 35 µM (inactive) | –
18 | COc1cc(/C=C(/C#N)c2nc3ccccc3[nH]2)ccc1OCC(=O)Nc1ccccc1C(C)C | – | 4.84
19 | COc1ccccc1CCCNC(=O)C1CCC(=O)N(Cc2ccccc2F)C1 (stereo not drawn) | > 35 µM (inactive) | –
20 | C[C@H](NC(=O)OC(C)(C)C)C(=O)NCC1CCC(C(=O)N[C@@H](Cc2ccccc2)C(=O)O)CC1 (stereo partly drawn) | > 35 µM (inactive) | –
21 | Cc1ccc(NC(=O)Cn2ncc(Cl)c(Cl)c2=O)cc1S(=O)(=O)N1CCCCC1 | > 35 µM (inactive) | –
22 | Cc1ccc(NC(=O)CSc2nnc(C)n2-c2ccccc2)cc1 | > 35 µM (inactive) | –
23 | O=C(NNc1cc(Br)c(O)c(Br)c1)c1ccccc1 | > 35 µM (inactive) | –
24 | COc1ccc(NC(=O)c2cccc3c2C(=O)c2ccc(-c4ccc(F)cc4OCc4ccccc4)cc2S3(=O)=O)cc1 | > 35 µM (inactive) | –

Row | SMILES | EC50 | pEC50
25 | Cc1cccc(NC(=O)CSc2nnc(CNC(=O)c3ccc(S(=O)(=O)N(C)C)cc3)n2-c2ccc(F)cc2)c1 | > 35 µM (inactive) | –
26 | Cc1ccc(C(C[N+](=O)[O-])c2c(C)[nH]n(-c3ccccc3)c2=O)cc1 (stereo not drawn) | > 35 µM (inactive) | –
27 | COc1ccccc1N1CCN(C(c2ccccc2)c2nnnn2CCc2ccccc2)CC1 (stereo not drawn) | > 35 µM (inactive) | –
28 | CCOC(=O)c1cccc(NC(=O)CN(c2ccc(C)cc2)S(=O)(=O)c2c(C)noc2C)c1 | > 35 µM (inactive) | –
29 | C#CC(=O)N(c1cc(OC)ccc1OC)C(C(=O)NC1CCCC1)c1cccs1 (stereo not drawn) | > 35 µM (inactive) | –
30 | CCOC(=O)/C(=C\c1ccc(OC(F)F)cc1)C1=Nn2c(nnc2-c2ccc(Cl)cc2)SC1 | – | 5.21
31 | O=C1C=CC(=O)N1c1cccc(-c2ccccc2)c1 | > 35 µM (inactive) | –
32 | COCCCN(C(=O)Nc1ccccc1)C(C)c1ccncc1 (stereo not drawn) | > 35 µM (inactive) | –
33 | CCN(CC)CCCN=C(C)c1c(O)n(-c2ccc(C)cc2)c(=O)[nH]c1=O | > 35 µM (inactive) | –
34 | O=C(c1cc2sccc2n1Cc1ccc(F)cc1)N1CCCc2ccccc21 | > 35 µM (inactive) | –
35 | CCN(C(=O)CCN1C(=O)c2ccccc2S1(=O)=O)c1ccccc1 | > 35 µM (inactive) | –
36 | CCOC(=O)[C@@H]1[C@H]2COc3ccc(Br)cc3[C@H]2N2C(=O)N(c3ccc(Cl)cc3)C(=O)[C@@]12C | > 35 µM (inactive) | –
37 | CC(C)(C)NC(=O)NC(=O)COC(=O)CNS(=O)(=O)/C=C/c1ccccc1 | > 35 µM (inactive) | –
38 | CCCN1C(=O)C(=O)c2cc(C)ccc21 | > 35 µM (inactive) | –
39 | COc1cc2ncnc(NCc3ccc(F)cc3)c2cc1OC | > 35 µM (inactive) | –
40 | CC1(C)CC(=O)c2cc3c(N)c(C(=O)NCc4ccccc4)sc3nc2C1 | > 35 µM (inactive) | –
41 | COc1ccc(OC)c2sc(N(CCCN(C)C)C(=O)c3ccc(S(=O)(=O)N4CCc5ccccc5C4)cc3)nc12 | > 35 µM (inactive) | –
42 | CN(c1ccc(OCC(=O)NC2CCC(O)CC2)cc1)S(=O)(=O)c1ccc(Cl)cc1 (stereo not drawn) | > 35 µM (inactive) | –
43 | COc1ccc(S(=O)(=O)N2CC(O)CC2C(=O)OCc2nc3sc(C)c(C)c3c(=O)[nH]2)cc1 (stereo not drawn) | > 35 µM (inactive) | –
44 | CNC(=O)Nc1ccc(Cn2cc(C(F)(F)F)ccc2=O)cc1 | > 35 µM (inactive) | –
45 | Cc1cc(N2CCN(c3ccccc3)CC2)nc(-c2ccccc2)n1 | > 35 µM (inactive) | –
46 | O=C(O)C(CCCCNS(=O)(=O)c1ccc(F)cc1)NS(=O)(=O)c1ccc(F)cc1 (stereo not drawn) | > 35 µM (inactive) | –
47 | Cc1cc(Oc2ccc(=O)[nH]n2)nc(Cl)n1 | > 35 µM (inactive) | –
48 | COCCNC(=S)N(CCc1c(C)[nH]c2ccccc12)Cc1cccnc1 | > 35 µM (inactive) | –

Row | SMILES | EC50 | pEC50
49 | N#Cc1cc(C(=O)c2cc(Br)ccc2O)cn(C2CC2)c1=O | > 35 µM (inactive) | –
50 | COc1oc(-c2ccccc2)nc1C(F)(F)F | > 35 µM (inactive) | –
51 | Cc1cc(Br)c(OCc2ccc(C(=O)N/N=C/c3ccc[nH]3)cc2)c(Br)c1 | – | 4.47
52 | CCc1cccc(C)c1Nc1nc2ccccc2n2cnnc12 | > 35 µM (inactive) | –
53 | O=C(Nc1ccc2oc(-c3ccccc3F)nc2c1)c1ccccc1F | > 35 µM (inactive) | –
54 | O=S1(=O)CCOC[C@H](CC2CCCCC2)N1Cc1cccc(Cl)c1 | > 35 µM (inactive) | –
55 | CC(O)[C@H](NC(=O)C1(c2ccccc2)CCN(C(=O)OC(C)(C)C)CC1)C(=O)O (stereo partly drawn) | > 35 µM (inactive) | –
56 | COc1ccc2[nH]c(C(=O)Nc3ccc(F)cc3Br)cc2c1 | > 35 µM (inactive) | –
57 | CCc1nc(N=Nc2c(O)[nH]c3ccccc23)c2c3c(sc2n1)CCC3 | – | 4.68
58 | CCOC(=O)C(C(=O)OCC)C(C(=O)OCC)N1CCOCC1 (stereo not drawn) | > 35 µM (inactive) | –
59 | Cc1ccc(OCCC(=O)Nc2ccc(C)c(F)c2)cc1 | > 35 µM (inactive) | –
60 | NCCCC[C@H](N[C@@H](CCc1ccccc1)C(=O)O)C(=O)N1CCC[C@H]1C(=O)O | > 35 µM (inactive) | –
61 | Cc1ccc(/C=C/C(=O)Nc2sc(C)c(C)c2C(=O)OC(C)C)o1 | > 35 µM (inactive) | –
62 | O=C1N(S(=O)(=O)c2ccccc2F)C(=O)C2(CCCC2)N1S(=O)(=O)c1ccccc1F | > 35 µM (inactive) | –
63 | CCc1cccc(NC(=O)C2CCN(S(=O)(=O)c3ccc4c(c3)NC(=O)CO4)CC2)c1 | > 35 µM (inactive) | –
64 | O=C1NC(=O)C(c2cn(-c3ccccc3)nc2-c2ccc(F)cc2)N1 (stereo not drawn) | > 35 µM (inactive) | –
65 | COc1ccc(NC(=O)CSc2nc3ccc(Nc4nc(N5CCOCC5)nc(N5CCOCC5)n4)cc3s2)cc1 | > 35 µM (inactive) | –
66 | COc1cc(/C=C/C(=O)c2ccc([N+](=O)[O-])o2)ccc1O | > 35 µM (inactive) | –
67 | CCOC(=O)C1=C(c2ccccc2)O/C(=C(/C#N)C(F)(F)F)S1 | > 35 µM (inactive) | –
68 | COc1ccc(CNC(=O)CN(Cc2ccc(Cl)cc2)S(=O)(=O)c2ccccc2)cc1 | > 35 µM (inactive) | –
69 | O=C(c1ccccc1)c1n[nH]c(-c2ccccc2)cc1=O | > 35 µM (inactive) | –
70 | Cc1occc1-c1nnc(-c2cc([N+](=O)[O-])cc([N+](=O)[O-])c2)o1 | > 35 µM (inactive) | –
71 | Cc1ccc(NC(=O)CCN2CC(C)OC(C)C2)cc1C (stereo not drawn) | > 35 µM (inactive) | –
72 | CC(C)c1cccc(-c2ccc3c(c2)S(=O)(=O)c2cccc(C(=O)NC4CCCC4)c2C3=O)c1 | > 35 µM (inactive) | –

Row | SMILES | EC50 | pEC50
73 | Cc1nc(SCc2nc3c([N+](=O)[O-])cccc3[nH]2)c2oc3ccccc3c2n1 | > 35 µM (inactive) | –
74 | Cc1cc(C(F)(F)F)n2ncc(-c3cccc(Br)c3)c2n1 | > 35 µM (inactive) | –
75 | O=C(/C=C/c1ccc(F)cc1)NC(=S)Nc1ccccc1C(=O)NC1CCCCC1 | > 35 µM (inactive) | –
76 | COc1cc(OC)cc(C(=O)Nc2ccc(S(=O)(=O)N3CCOCC3)cc2)c1 | > 35 µM (inactive) | –
77 | O=C(COC(=O)Cc1ccccc1[N+](=O)[O-])NCc1ccc(Cl)cc1 | > 35 µM (inactive) | –
78 | Cc1nc2sc(C(=O)O)c(N)c2c2c1COC(C)(C)C2 | > 35 µM (inactive) | –
79 | Cc1ccc(NC(=S)NC(NC(=O)Cc2cccc3ccccc23)C(Cl)(Cl)Cl)cc1 (stereo not drawn) | – | 4.70
80 | COc1cccc(CN(CC(=O)NC2CCCC2)C(=O)c2csnn2)c1 | > 35 µM (inactive) | –
81 | COc1cccc(-c2cc(=O)c3cc(NC(=O)c4ccc(N(C)C)cc4)ccc3[nH]2)c1 | > 35 µM (inactive) | –
82 | CN(C)C/C=C(\c1ccc(Br)cc1)c1cccnc1 | > 35 µM (inactive) | –
83 | CCOc1cc(/C=C\[N+](=O)[O-])ccc1OCC(=O)Nc1ccccc1C | – | 5.44
84 | Cc1cc(C(C#N)c2ccc(Cl)cc2)c(Cl)cc1NC(=O)c1cc(I)cc(I)c1O (stereo not drawn) | > 35 µM (inactive) | –
85 | COc1ccccc1C(=O)Nc1ccnn1C1CCN(Cc2cn(C)c3ccccc23)CC1 | > 35 µM (inactive) | –
86 | CC12CCCCC1NS(=O)(=O)OC2 (stereo not drawn) | > 35 µM (inactive) | –
87 | CC(=O)OC[C@]12CC[C@H]3[C@@](C)(CC[C@H]4C(C)(C)CCC[C@]34C)[C@@H]1C[C@@H](C1=CC(=O)O[C@@H]1OC(C)=O)O2 | – | 5.30
88 | CC1CC(C)CN(C(=O)CCCn2c(=S)[nH]c3ccccc3c2=O)C1 (stereo not drawn) | > 35 µM (inactive) | –
89 | Cc1ccc(OCCC(=O)Nc2ccccc2C(=O)NC2CC2)cc1 | > 35 µM (inactive) | –
90 | CC(C)[C@H](NS(=O)(=O)c1ccccc1F)C(=O)OCC(=O)Nc1cccc(S(N)(=O)=O)c1 | > 35 µM (inactive) | –
91 | CCCNC(=O)c1ccc2c(=O)c(O)c(-c3ccsc3)[nH]c2c1 | > 35 µM (inactive) | –
92 | O=C(Nc1cccc([N+](=O)[O-])c1)Nc1ccc2c(c1)CCC2 | > 35 µM (inactive) | –
93 | Cc1cc(Sc2ncnc(N)c2[N+](=O)[O-])ncn1 | > 35 µM (inactive) | –

— PubChem BioAssay AID2765 (Broad Institute, 2010)
